Read-outs that look alike come from different tables or passages of the source.
Legend:
[1] = biological target: DNA-PK (Homo sapiens, UniProt P78527); test: DNA-PK inhibition; assay type: biochemical; conditions: stated in results, no method or reference given; read-out: IC50 inhibiting DNA-PK
[2] = Plasma pharmacokinetics in mice (LC/MS/MS); assay type: in vivo, Female BALB/c mice
Method: (§1) NU7026 was formulated in 10% DMSO and 5% Tween 20 in saline for i.p. and perorally (p.o.) administration at 20 and 50 mg kg^−1, respectively. For i.v. dosing at 5 mg kg^−1, NU7026 was formulated in 10% ethanol, 25% PEG 200 and 5% Tween 20 in saline. Control animals received the vehicle alone. Groups of three mice were injected per time point. Blood was collected by cardiac puncture following transient anaesthesia with halothane at 0.083, 0.25, 0.5, 1, 2, 4, 6, and 24 h post administration. Following centrifugation at 1500 g for 2 min to obtain plasma, samples were stored at −20°C until analysis. For urinary excretion studies, NU7026 was administered at 5 mg kg^−1 i.v. Urine was collected over 24 h in metabolic cages, and stored at −20°C until required.
Samples were analysed by liquid chromatography tandem mass spectrometry (LC/MS/MS). Chromatography was performed using a 50 × 4.6 mm ID 5 μm zwitterionic ABZ+ column (Supelco, Poole, Dorset, UK) and a gradient of 20% methanol (MeOH) in formic acid (0.1%) to 100% MeOH over 3 min, followed by an isocratic period at a flow rate of 0.6 ml min^−1. The total run time was 7 min. Detection by multiple reaction monitoring was performed on a TSQ700 triple quadrupole mass spectrometer equipped with an electrospray source and operated in positive ion mode (Thermoquest Ltd, Hemel Hempstead, Herts, UK). The heated capillary was maintained at 280°C and at a voltage of 4.5 kV. The following transitions were monitored: m/z (mass to charge ratio) 282.4 → m/z 171 for NU7026; m/z 262.3 → m/z 121 for NU7031; m/z 300 → m/z 256 for NU7119; m/z 300 → m/z 238 for NU7200. Calibration standards (20, 200, 500, 1000, 2000, 5000, 10 000, 20 000 and 50 000 nM) were prepared in blank mouse plasma. Following the addition of internal standard (30 μl of 2 μM solution of NU7031), plasma proteins were precipitated with 300 μl MeOH. Samples were then centrifuged and 20 μl of supernatant was injected onto the column. Peak area was plotted against concentration and unknown concentrations derived from the linear plot (analysed with Prism 2.01, Graphpad Software, San Diego, CA, USA).
Pharmacokinetic parameters were evaluated by noncompartmental analysis (model 200 for p.o. and i.p. administration and 201 for i.v. administration) using WinNonlin® Professional Version 3.2 (Pharsight Corporation, Mountain View, CA, USA). For simulation studies, parameters were derived from compartmental analysis.

[3] = Urinary excretion / metabolite profile in 24 h mouse urine; assay type: in vivo, Female BALB/c mice; conditions: mice, NU7026 5 mg kg^−1 i.v., LC/MS ion current
Method: as §1
For metabolism studies, LC/MS and LC/MS/MS were carried out on an LCQ ion trap instrument (ThermoFinnigan, UK). Separation was achieved using the same column as above. A linear gradient of 90% formic acid (0.1%) : 10% MeOH to 10% formic acid (0.1%) : 90% MeOH was run at 1 ml min^−1 from 0.5 to 6.5 min followed by 3.5 min isocratic. The capillary temperature was set to 200°C and the scan range from m/z 50 to m/z 850. For confirmation of metabolite structures, metabolites were spiked in control matrix and MS/MS fragmentation patterns and retention times were compared to those of biological samples.

[4] = biological target: phosphoinositide 3-kinase; parameters: method as in Veuger et al, 2003, 2004; Griffin et al 2005; conditions: ref Veuger et al, 2003, 2004; Griffin et al 2005; cited from earlier work
[5] = tested on: CH1 human ovarian carcinoma cells; test: Clonogenic survival assay / radiosensitisation; assay type: cell-based; conditions: for cell count, % of the radiation control group: P<0.01
Method: These experiments were not designed as classical radiosensitisation experiments, that is, radiation dose finding study, but rather as experiments to investigate the minimum drug exposure required to observe radiosensitisation. CH1 human ovarian carcinoma cells were chosen as as a model because of their relative radiosensitivity (Kelland, personnal communication). They were grown as monolayers in Dubelcco's modified Eagle's medium (Invitrogen, Paisley, Scotland) augmented with 10% heat-inactivated fetal calf serum, 2 mM L-glutamine, minimal essential medium nonessential amino acid (Invitrogen) and 0.5 μg ml^−1 hydrocortisone in a 6.5% CO2/93.5% air atmosphere.
Cells were seeded at 1000 per 10 ml into […] flasks and left to attach overnight. Each group consisted of triplicate flasks. Following the addition of NU7026 (10 μM) or dimethyl sulphoxide (DMSO) solvent control for 24 h (final concentration of DMSO was 0.5%), cells were irradiated with a cobalt source (^60Co) for 3 min and 9 s at a distance of 40 cm to give a total dose of 2 Gy, or 2 min and 49 s at a distance of 30 cm to give a final dose of 3 Gy, or 6 min and 18 s at a distance of 40 cm to give a total dose of 4 Gy. Control cells were not treated with either drug or ionising radiation. Group 2 cells were treated with NU7026 only and Group 3 cells were irradiated only. Groups 4–7 were treated with NU7026 and irradiated with 2, 3 or 4 Gy. The drug was washed off by aspiration of the medium and rinsing with 10 mM phosphate-buffered saline (PBS) 2 h (Group 4), 4 h (Group 5), 6 h (Group 6) and 24 h (Group 7) after exposure. Following the addition of drug-free medium, cells were left to grow until colonies were visible. Colonies were then counted after 9 days and expressed as a percentage of controls. The doubling time of the cells was approximately 16 h.

[6] = biological target: ataxia telangiectasia mutated kinase (ATM); parameters: method as in Veuger et al, 2003, 2004; Griffin et al 2005; conditions: ref Veuger et al, 2003, 2004; Griffin et al 2005; cited from earlier work
[7] = Solubility (for constant infusion with osmotic minipumps); assay type: physicochemical; conditions: for dosing by constant infusion with osmotic minipumps
[8] = tested on: ataxia telangiectasia and rad 3-related kinases (ATR); parameters: method as in Veuger et al, 2003, 2004; Griffin et al 2005; conditions: ref Veuger et al, 2003, 2004; Griffin et al 2005; cited from earlier work
[9] = Table 3: each compound at 20 mg kg^−1 i.p. to mice, plasma
[10] = female, BALB/c, mouse, plasma, ip, 20 mg/kg, Table 3: each compound at 20 mg kg^−1 i.p. to mice, plasma
[11] = Table 2: parent and metabolites in plasma after NU7026 at 5 mg kg^−1 i.v. to mice

C[C@@H]1CN(c2cc(=O)n3ccc4ccccc4c3n2)C[C@H](C)O1 [NU7107, 2-((2S,6R)-2,6-dimethylmorpholin-4-yl)-pyrimido[2,1-a]isoquinolin-4-one]
IC50 [1]: > 10 µM
AUC last [2, 9]: 12165 nmol·L/h
Cl obs. [2, 9]: 0.11 L/h
Vd [2, 9]: 0.12 L
half-life ([2]; female, BALB/c, mouse, ip, Table 3: each compound at 20 mg kg^−1 i.p. to mice, plasma): 47.4 min
Tmax ([2]; female, BALB/c, mouse, ip, Table 3: each compound at 20 mg kg^−1 i.p. to mice, plasma, read-out: Tmax): 15 min
Cmax [2, 10]: 10.4 µM
decrease in plasma clearance compared with NU7026 ([2]; mice, 20 mg kg^−1 i.p.): four-fold
plasma level 6 h post administration ([2]; mice, 20 mg kg^−1 i.p.): still detectable

O=c1cc(NCCOCCO)oc2c1ccc1ccccc12 [NU7200, 2-[2-(2-hydroxyethoxy)-ethylamino]-benzo[H]chromen-4-one]
level in 24 h urine samples [3]: significant amounts
AUC last [2, 11]: 143 nmol·L/h

O=c1cc(N2CCOC(O)C2)oc2c1ccc1ccccc12 (centres unmarked) [M1]
level in 24 h urine samples [3]: significant amounts

O=c1cc(N(CCO)CCO)oc2c1ccc1ccccc12 [NU7199, 2-[bis-(2-hydroxyethyl)-amino]-benzo[H]chromen-4-one]
level in 24 h urine samples [3]: significant amounts
AUC last [2, 11]: 414 nmol·L/h

O=c1cc(N2CCOCC2)oc2c1ccc1ccccc12 [NU7026, 2-(morpholin-4-yl)-benzo[H]chromen-4-one]
IC50 [4]: 13 µM
cell survival, % of the solvent-treated group ([5]; 10 μM NU7026 combined with 2 Gy radiation): 15%
cell survival, % of the solvent-treated group ([5]; 10 μM NU7026 combined with 3 Gy radiation): 9%
cell survival, % of the solvent-treated group ([5]; 10 μM NU7026 combined with 4 Gy radiation): 1%
radiosensitisation vs radiation alone ([5]; 2 h treatment with 10 μM NU7026 + 3 Gy, t test P>0.1): no significant difference
cell count, % of the radiation control group ([5]; 4 h exposure to 10 μM NU7026 + 3 Gy): 61%
cell count, % of the radiation control group ([5]; 6 h exposure to 10 μM NU7026 + 3 Gy): 47%
cell count, % of the radiation control group ([5]; 24 h exposure to 10 μM NU7026 + 3 Gy): 13%
activity at 10 µM ([5]; Homo sapiens, Ovarian carcinoma cell, NU7026 alone, 10 μM for 24 h, no radiation, read-out: surviving fraction, % of control cells): 91 ± 13%
IC50 [6]: > 100 µM
solubility [7]: insufficient solubility
IC50 [8]: > 100 µM
AUC last [2, 11]: 3616 nmol·L/h
Cl obs. [2, 9]: 0.44 L/h
Vd [2, 9]: 0.55 L
t1/2 [2, 9]: 52.2 min
half-life ([2]; female, BALB/c, mouse, ip, mice, 20 mg kg^−1 i.p., plasma): 52.2 min
Tmax ([2]; female, BALB/c, mouse, ip, mice, 20 mg kg^−1 i.p., plasma, read-out: Tmax): 4.98 min
half-life ([2]; female, BALB/c, mouse, iv, mice, 5 mg kg^−1 i.v., plasma): 73.2 min
Tmax ([2]; female, BALB/c, mouse, iv, mice, 5 mg kg^−1 i.v., plasma, read-out: Tmax): 0 min
bioavailability ([2]; female, BALB/c, mouse, plasma, intraperitoneal, mice, i.p. 20 mg kg^−1, assuming linear i.v. pharmacokinetics): 20%
Cmax [2, 10]: 5.12 µM
Cmax ([2]; female, BALB/c, mouse, plasma, ip, 20 mg/kg, mice, 20 mg kg^−1 i.p., noncompartmental): 7.36 µM
Cmax ([2]; female, BALB/c, mouse, plasma, iv, 5 mg/kg, mice, 5 mg kg^−1 i.v., noncompartmental): 5.12 µM
clearance ([2]; female, BALB/c, mouse, plasma, iv, 5 mg/kg, mice, 5 mg kg^−1 i.v., plasma, read-out: Cl obs. (converted)): 1.5 mL/min
clearance ([2]; female, BALB/c, mouse, plasma, iv, 5 mg/kg, mice, 5 mg kg^−1 intravenous (abstract), read-out: plasma clearance (converted)): 1.8 mL/min
Vd ([2]; female, BALB/c, mouse, plasma, iv, mice, 5 mg kg^−1 i.v., based on the elimination phase, read-out: Vd): 0.16 L
Cmax ([2]; female, BALB/c, mouse, plasma, po, 50 mg/kg, mice, 50 mg kg^−1 p.o., noncompartmental): 2.23 µM
Cmax ([2]; female, BALB/c, mouse, plasma, po, 50 mg/kg, mice, p.o. 50 mg kg^−1 (discussion)): < 2.5 µM
half-life ([2]; female, BALB/c, mouse, po, mice, 50 mg kg^−1 p.o., plasma): 88.8 min
Tmax ([2]; female, BALB/c, mouse, mice, oral 50 mg kg^−1, plasma, read-out: time of maximum concentration after administration): 60 min
AUC last ([2]; mice, 5 mg kg^−1 i.v., plasma): 3616 nM l h^−1
Vd ([2]; mice, 20 mg kg^−1 i.p., based on the elimination phase): 0.55 L
AUC last ([2]; mice, 20 mg kg^−1 i.p., plasma): 2940 nM l h^−1
Cl obs. ([2]; mice, 20 mg kg^−1 i.p., plasma): 0.44 L/h
Vd ([2]; mice, 50 mg kg^−1 p.o., based on the elimination phase): 1.34 L
AUC last ([2]; mice, 50 mg kg^−1 p.o., plasma): 5191 nM l h^−1
Cl obs. ([2]; mice, 50 mg kg^−1 p.o., plasma): 0.63 L/h
plasma level at 4 h post administration ([2]; mice, i.v. 5 mg kg^−1): undetectable
time compound levels were above 10 μM ([2]; mice, i.v. administration, plasma): less than 1 h
maximum concentration ([2]; mice, oral 50 mg kg^−1, plasma): 2.2 µM
oral bioavailability ([2]; mice, p.o. 50 mg kg^−1 (abstract prints 20 mg kg^−1), based on linear i.v. pharmacokinetics): 15%

Source: PMC2361671, “Preclinical pharmacokinetics and metabolism of a novel prototype DNA-PK inhibitor NU7026” (British Journal of Cancer, 2005)
